Values joined by “and” are separate entries in the source; they are usually repeats but may differ in a detail not shown here. Equal values may be shown once.
Experiments:
serum aldosterone = experiment: Serum aldosterone (pharmacodynamic response); format: in vivo, human; settings: for Aldosterone, Mean (SD) Observed / Aldosterone, Mean (SD) Percent Change from Baseline: Part 1, Wk 12; for Aldosterone, Mean Observed / Aldosterone, Mean Percent Change from Baseline: Part 2
Source text: (§1) PK/PD Analysis Set includes all subjects in the SAF who have sufficient data available for the analysis of pharmacokinetic and pharmacodynamic measurements. In the analyses based on PKPD, subjects will be analyzed according to the actual treatment received.

serum cortisol = experiment: Serum cortisol (pharmacodynamic response); format: in vivo, human; settings: for Serum cortisol percent change from baseline / Cortisol, Mean Observed / Cortisol, Mean Percent Change from Baseline: Part 2; for Serum cortisol percent change from baseline, range across active arms / Cortisol, Mean (SD) Observed / Cortisol, Mean (SD) Percent Change from Baseline: Part 1
Source text: as §1

Structure (SMILES): CC(=O)N[C@H]1CC[C@H](NC(=O)CN2CCN(c3nncc(-c4ccc(C)cc4)n3)CC2)CC1 [Compound A HBr]
- Aldosterone, Mean (SD) Observed (serum aldosterone; 12.5 mg QD): 6.833 (4.743) ng/dL
- Aldosterone, Mean (SD) Percent Change from Baseline (serum aldosterone; 12.5 mg QD): 15.91 (67.68) %
- Aldosterone, Mean (SD) Observed (serum aldosterone; 25 mg BID): 4.983 (3.432) ng/dL
- Aldosterone, Mean (SD) Percent Change from Baseline (serum aldosterone; 25 mg BID): −10.10 (66.83) %
- Aldosterone, Mean (SD) Observed (serum aldosterone; 50 mg QD): 5.385 (4.087) ng/dL
- Aldosterone, Mean (SD) Percent Change from Baseline (serum aldosterone; 50 mg QD): −3.75 (56.02) %
- Aldosterone, Mean (SD) Observed (serum aldosterone; 100 mg QD): 4.563 (2.868) ng/dL
- Aldosterone, Mean (SD) Percent Change from Baseline (serum aldosterone; 100 mg QD): −26.56 (37.55) %
- Aldosterone, Mean Observed (serum aldosterone; Wk 4, 100 mg QD): 5.060 ng/dL
- Aldosterone, Mean Percent Change from Baseline (serum aldosterone; Wk 4, 100 mg QD): −6.05%
- Aldosterone, Mean Observed (serum aldosterone; Wk 10, 100 mg QD): 4.929 ng/dL
- Aldosterone, Mean Percent Change from Baseline (serum aldosterone; Wk 10, 100 mg QD): −4.06%
- Serum aldosterone levels, pharmacodynamic response (serum aldosterone; across doses): dose-dependent reduction in serum aldosterone levels
- Serum cortisol percent change from baseline (serum cortisol; 100 mg QD, Week 4): 20.1%
- Serum cortisol percent change from baseline (serum cortisol; 100 mg QD, Week 8): 153.4%
- Serum cortisol percent change from baseline (serum cortisol; 100 mg QD, Week 12): 1.5%
- Serum cortisol percent change from baseline, range across active arms (serum cortisol; Week 4): 3.8% to 19.2%
- Serum cortisol percent change from baseline, range across active arms (serum cortisol; Week 8): 20.6% to 51.4%
- Serum cortisol percent change from baseline, range across active arms (serum cortisol; Week 12, listed as lorundrostat): −1.2% to 22.7% and −1.2 to 22.6%
- Cortisol, Mean (SD) Observed (serum cortisol; Wk 4, 12.5 mg BID): 10.895 (3.859) μg/dL
- Cortisol, Mean (SD) Percent Change from Baseline (serum cortisol; Wk 4, 12.5 mg BID): 10.26 (45.03) %
- Cortisol, Mean (SD) Observed (serum cortisol; Wk 4, 12.5 mg QD): 9.305 (4.164) μg/dL
- Cortisol, Mean (SD) Percent Change from Baseline (serum cortisol; Wk 4, 12.5 mg QD): 7.47 (37.82) %
- Cortisol, Mean (SD) Observed (serum cortisol; Wk 4, 25 mg BID): 12.311 (5.180) μg/dL
- Cortisol, Mean (SD) Percent Change from Baseline (serum cortisol; Wk 4, 25 mg BID): 19.20 (49.39) %
- Cortisol, Mean (SD) Observed (serum cortisol; Wk 4, 50 mg QD): 10.875 (3.368) μg/dL
- Cortisol, Mean (SD) Percent Change from Baseline (serum cortisol; Wk 4, 50 mg QD): 3.83 (32.48) %
- Cortisol, Mean (SD) Observed (serum cortisol; Wk 4, 100 mg QD): 11.842 (4.350) μg/dL
- Cortisol, Mean (SD) Percent Change from Baseline (serum cortisol; Wk 4, 100 mg QD): 3.91 (32.33) %
- Cortisol, Mean (SD) Observed (serum cortisol; Wk 8, 12.5 mg BID): 12.316 (7.649) μg/dL
- Cortisol, Mean (SD) Percent Change from Baseline (serum cortisol; Wk 8, 12.5 mg BID): 20.56 (73.01) %
- Cortisol, Mean (SD) Observed (serum cortisol; Wk 8, 12.5 mg QD): 12.511 (8.784) μg/dL
- Cortisol, Mean (SD) Percent Change from Baseline (serum cortisol; Wk 8, 12.5 mg QD): 41.84 (90.37) %
- Cortisol, Mean (SD) Observed (serum cortisol; Wk 8, 25 mg BID): 15.525 (8.258) μg/dL
- Cortisol, Mean (SD) Percent Change from Baseline (serum cortisol; Wk 8, 25 mg BID): 49.57 (77.17) %
- Cortisol, Mean (SD) Observed (serum cortisol; Wk 8, 50 mg QD): 15.650 (7.102) μg/dL
- Cortisol, Mean (SD) Percent Change from Baseline (serum cortisol; Wk 8, 50 mg QD): 51.35 (78.86) %
- Cortisol, Mean (SD) Observed (serum cortisol; Wk 8, 100 mg QD): 16.680 (9.083) μg/dL
- Cortisol, Mean (SD) Percent Change from Baseline (serum cortisol; Wk 8, 100 mg QD): 47.29 (92.65) %
- Cortisol, Mean (SD) Observed (serum cortisol; Wk 12, 12.5 mg BID): 9.978 (2.742) μg/dL
- Cortisol, Mean (SD) Percent Change from Baseline (serum cortisol; Wk 12, 12.5 mg BID): −1.22 (21.10) %
- Cortisol, Mean (SD) Observed (serum cortisol; Wk 12, 12.5 mg QD): 9.317 (3.294) μg/dL
- Cortisol, Mean (SD) Percent Change from Baseline (serum cortisol; Wk 12, 12.5 mg QD): 18.06 (48.59) %
- Cortisol, Mean (SD) Observed (serum cortisol; Wk 12, 25 mg BID): 12.559 (4.287) μg/dL
- Cortisol, Mean (SD) Percent Change from Baseline (serum cortisol; Wk 12, 25 mg BID): 22.65 (41.94) %
- Cortisol, Mean (SD) Observed (serum cortisol; Wk 12, 50 mg QD): 11.262 (3.590) μg/dL
- Cortisol, Mean (SD) Percent Change from Baseline (serum cortisol; Wk 12, 50 mg QD): 6.91 (35.36) %
- Cortisol, Mean (SD) Observed (serum cortisol; Wk 12, 100 mg QD): 12.680 (5.659) μg/dL
- Cortisol, Mean (SD) Percent Change from Baseline (serum cortisol; Wk 12, 100 mg QD): 8.40 (30.09) %
- Cortisol, Mean Observed (serum cortisol; Wk 4, 100 mg QD): 13.464 µg/dL
- Cortisol, Mean Percent Change from Baseline (serum cortisol; Wk 4, 100 mg QD): 20.10%
- Cortisol, Mean Observed (serum cortisol; Wk 8, 100 mg QD): 25.393 µg/dL
- Cortisol, Mean Percent Change from Baseline (serum cortisol; Wk 8, 100 mg QD): 153.35%
- Cortisol, Mean Observed (serum cortisol; Wk 10, 100 mg QD): 10.763 µg/dL
- Cortisol, Mean Percent Change from Baseline (serum cortisol; Wk 10, 100 mg QD): 1.45%
- Effects on serum cortisol (serum cortisol; pooled (Part 1 and Part 2) 100 mg QD safety set (n=60)): no effects on serum cortisol
- Effects on serum cortisol (serum cortisol; safety dataset, complete analysis): no effects on serum cortisol
- Morning serum cortisol levels (serum cortisol; summary of trial): modestly increased
